The values that follow come from patent US20090017047A1, “Preparation for the Prevention and Treatment of Stress Conditions as Well as Functional and Organic Disorders of the Nervous System and Metabolic Disorders” (priority 2004, published 2009).

Like-named read-outs stand apart in the source and are kept apart here.

Data set [1] has as its system NMDA receptors (N-methyl-D-aspartate receptors). As to conditions: opening of the ion channel induced by glutamate.
For data set [2] the following is noted: very low application dosage.
A short description of data set [3]: Pharmacological effect and tolerability of glycine on administration. As to conditions: in vivo.

`NCC(=O)O` [Glycine]: in data set [1], the “effect on the excitatory NMDA receptors” value is reported as “shows an effect as a co-transmitter”. The “uptake into the central nervous system” value in data set [2] (application via the mucous membranes, avoiding the first-pass effect) was “very fast uptake”; in data set [2], “very quick uptake”. Besides, the “negative effects with other applications of drugs” value in data set [3] is listed as “No negative effects”. The “time until the preparation acts” value in data set [3] was 5 to 10 min. Besides, the figures for the undesired side-effects entry in data set [3] and in data set [3] (listed as glycine) were “have not been proven” and “No undesired side-effects have been established”, respectively.
